# Tested on: glutathione (GSH)
# Experiment: Glutathione reactivity / stability against GSH
# Format: physicochemical
# Settings: glutathione (GSH) in PBS buffer, pH 7.4, 5 mM GSH, read-out: half-life (t1/2) against glutathione (converted)
# Procedure: A total of 5 µL of a 10 mM compound stock solution in DMSO were added to 5 µL of a 4 mM Indoprofen solution in PBS as internal standard. The mixture was diluted with PBS buffer to a total volume of 1 mL of component A. Additionally, a freshly prepared solution of 10 mM GSH in PBS buffer was used as component B. A total of 250 µL of each component was mixed and immediately subjected to HPLC analysis for t^0 measurement. The probes were stored at 40 °C in between the respective injections. t1/2 was determined by plotting natural logarithm of AUC/AUC0 against time.
smiles,measurement,value
"C=CC(=O)Nc1cccc(-c2c[nH]c3ncc(NC(=O)c4cccs4)cc23)c1 [Compound 12c, N-(3-(3-acrylamidophenyl)-1H-pyrrolo[2,3-b]pyridin-5-yl)thiophene-2-carboxamide]",half-life at 25 µM,9.98 h

# — PMC7730235, “Discovery of a Novel Class of Covalent Dual Inhibitors Targeting the Protein Kinases BMX and BTK” (International Journal of Molecular Sciences, 2020)
